Assay results as given in patent US20250186503A1, “METHODS AND COMBINATIONS FOR TREATMENT AND T CELL MODULATION” (Juno Therapeutics, Inc., priority 2018, published 2025).

How the values were obtained:
[1] = system: A549 CD19+ tumor spheroids; assay: Rescue of chronically stimulated anti-CD19 CAR T cells rechallenged with A549 CD19+ tumor spheroids; format: cell-based, human
Procedure: Anti-CD19 CAR-expressing T cell compositions (containing CD4+ and CD8+ T cells combined at a 1:1 ratio) were generated from three different healthy donors substantially as described in Example 14. To subject cells to chronic stimulation conditions, the CAR+ T cells were incubated with plate-bound anti-idiotypic (anti-ID) antibody (see e.g. WO2018/023100), and incubated at 37° C. for a period of 6 days. […] The A549 CD19+tumor spheroids were labeled with a dye to permit monitoring of tumor cell lysis by microscopy during the assay. Freshly thawed anti-CD19 CAR-expressing T cells that had not been subjected to the chronic stimulatory conditions were incubated with the spheroids in parallel as controls. Cells were assessed at various times for cytolytic function, CAR T cell number and cytokine production.

[2] = system: CD19 directed CAR-expressing T cells; assay: Antigen-dependent cytokine production by CD19 directed CAR-expressing T cells; format: cell-based, human; conditions: compared to vehicle control or equimolar concentrations of lenalidomide
From the text: […]. […] Data represents the mean+/−S.D. across 3 experiments.

anti-CD19 CAR T cells = assay: RNA-seq of CAR T cells sorted from tumor spheroids, Compound 1 after chronic stimulation; format: cell-based, human; conditions: 0.1 μM and 1 μM after chronic stimulation
Procedure: Gene expression analysis of CAR T cells sorted from tumor spheroids 5 days after co-culture was analyzed by RNA sequencing (RNA-seq) on the complementary DNA (cDNA) samples prepared from the RNA isolated from the long-term stimulated CAR-expressing T cells or on CAR-expressing T cells that had not undergone the long-term stimulation. […] Differential locus selection cut off was q<0.05 and absolute log 2 fold change>0.5 for RNA-seq.

anti-BCMA CAR+ T cells = assay: T cell markers on anti-BCMA CAR+ T cells stimulated with BCMA-conjugated beads; format: cell-based, human
Procedure: Approximately 1.5×10^6 CAR+ T cells were added to wells of a 12-well plate and were incubated with beads from a 200 μg/ml BCMA-conjugated bead composition at a ratio of CAR+ T cell to BCMA-conjugated bead of 1:0.3, 1:1 or 1:3 (approximately 0.5×10^6, 1.5, 10^6, and 4.5×10^6 beads per well, respectively). As controls, 5 μg/mL anti-CD3 antibody was coated to wells (sub-optimal concentration for stimulation) or cells were seeded in the absence of any agent (no stimulation control). […] The cells were incubated for four days and then analyzed by flow cytometry for surface expression of CD4, CD8, Tim3, PD-1, CD25 and CD69.
In a further experiment, anti-BCMA CAR-T cell compositions produced substantially as described in Example 1 were plated in 96-well plates at a density of 5×10^5 cells per well. The tested CAR-T cell compositions contained, on average, approximately 45% anti-BCMA CAR+ cells at plating. Cells from each composition were incubated for 18 hours in the presence of beads from a 5 μg/ml, 50 μg/ml, or 200 μg/ml BCMA-conjugated bead composition at a ratio of 1:1 T cells to beads. As a control, cells were incubated with anti-CD3/anti-CD28 antibody-conjugated beads (positive control) or no added agent (negative control). […] Following the incubation, the cells were treated with reagents that allowed for extracellular and intracellular antibody staining by flow cytometry for the transcription factors Blimp1, EOMES, GATA-3, ikaros, helios, and Tbet and markers CD25, CD31, and PD-1.

K562-CD19 cells = assay: Cytolytic activity of serially restimulated anti-CD19 CAR+ T cells against K562-CD19 cells; format: cell-based, human; conditions: 1 μM, 2nd and 4th restimulation
Procedure: Cells from each condition were plated in triplicate. Representative cell killing observed at the 2nd and 4th restimulation for both donors is shown in FIG. 18A (as normalized to K562—CD19-Nuc-labeled cells at t=0) or in FIG. 18B (% cell killing compared to vehicle only control (set at 100%)).

OPM-2 = conditions: read-out: sensitivity to lenalidomide; cited from earlier work
[3] = system: K562 cells transduced to express CD19; assay: Cytolytic activity of anti-CD19 CAR+ T cells against K562-CD19 cells; conditions: 1-5000 nM, E:T 2.5:1, about 120 hours
[4] = system: A549.CD19 tumor spheroids; assay: A549.CD19 tumor spheroid model, rescue treatment after chronic stimulation; format: cell-based, human
Procedure: An A549.CD19 tumor spheroid model was further used to elucidate the T cell modulatory activity of the compounds. A549.CD19 tumor spheroid growth is insensitive to monotherapy treatment with the immunomodulatory compounds. […] Averaged measurement of tumor spheroid size at Day 9 following co-culture with CAR-T cells was assessed. […] The log 2 fold change compared to control cells (chronically stimulated cells that had not been concurrently treated with immunomodulatory compound) is shown in FIG. 50B.

[5] = system: K562.CD19, Raji cells or Granta-519 cells; assay: Cytolytic activity against CD19+ tumor cells after concurrent Compound 2 during chronic stimulation; format: cell-based, human; conditions: 0.001 μM or 0.01 μM concurrent; E:T 1:1
From the text: The assessed CD19+tumor cells included K562 cells transduced with CD19 (K562.CD19), Raji cells or Granta-519 cells.

[6] = system: Granta-519 tumor spheroids; assay: Granta-519 spheroid tumor growth assay, rescue treatment after chronic stimulation; format: cell-based, human
Procedure: Long-term, chronic stimulation was carried out by stimulation of CAR T cells with 30 μg/mL plate-bound anti-idiotypic (anti-ID) antibody for 6 days, substantially as described in Example 22.
Cells were assessed at various time points for cytolytic function and cytokine function. […] Averaged measurement of tumor spheroid size at Day 9 following co-culture with CAR-T cells was assessed. […] The log 2 fold change compared to control cells (chronically stimulated cells that had not been treated with immunomodulatory compound) is shown in FIG. 49C.

[7] = 5 days co-culture, rescue treatment

From the text for RPMI-8226: T cells were isolated by immunoaffinity-based enrichment from leukapheresis samples from healthy donors. Isolated cells were transduced with a viral vector encoding one of various exemplary anti-BCMA CARs. Each anti-BCMA CAR contained a human anti-BCMA scFv, a spacer region, a CD28 transmembrane domain, a 4-1BB-derived intracellular co-signaling sequence, and a CD3-zeta derived intracellular signaling domain. The viral vector construct further encoded a truncated EGFR (EGFRt), which served as a surrogate marker for CAR expression; the EGFRt-coding region was separated from the CAR sequence by a T2A skip sequence. After transduction, cells were expanded and the resulting compositions were frozen by cryopreservation.
The target RPMI-8226 cells were labeled with NucLight Red (NLR) to permit their tracking by microscopy. […] Normalized target cell numbers were generated by dividing target cell counts to cell counts at the start of each culture.
The studies above were extended on anti-BCMA CAR+ T cells generated from cells from two additional healthy donors. […] Cytolytic activity and cytokine production (IFNγ, IL-2 and TNF-α) were assayed substantially as described above. Absolute changes in cytokine levels relative to the vehicle control were calculated. Experiments were performed 2 to 3 times in each donor.

SMILES: Cc1nc2cccc(N)c2c(=O)n1C1CCC(=O)NC1=O (stereo not drawn) [Compound 1, 3-(5-amino-2-methyl-4-oxo-4H-quinazolin-3-yl)-piperidine-2,6-dione]
- EC50 ([1]; Homo sapiens, chronically stimulated CAR-T cells, A549 CD19+ spheroids, read-out: EC50 for effect on tumor volume reduction): 0.127 µM
- numbers of CAR-T cells ([1]; day 5, 1 μM, fresh and chronically stimulated CAR-T cells): increase expansion and/or survival of CAR-T cells
- cytokine production (IFN-γ, IL-2, TNF-α) ([1]; day 5, long-term stimulated CAR-expressing T cells): increased relative to co-cultures containing vehicle control
- antigen-specific cytokine production and tumor reduction by chronically stimulated CAR-T cells ([1]; rescue treatment): restore antigen-specific cytokine production and tumor reduction
- levels of IFNγ and IL-2 [2]: increased levels
- expression of genes associated with a hypofunctional, exhausted state (anti-CD19 CAR T cells): partial reversal of expressed genes

SMILES: Nc1cccc2c1CN(C1CCC(=O)NC1=O)C2=O (stereo not drawn) [lenalidomide, 3-(4-amino-1-oxo-1,3-dihydro-2H-isoindol-2-yl)piperidine-2,6-dione]
- expression level of Ikaros (anti-BCMA CAR+ T cells; 0.5 μM or 5 μM, 18 hours, all conditions): decreased
- proliferative capacity of T cells (CTV dye) (anti-BCMA CAR+ T cells; 5 μM, 200 μg BCMA beads 1:1, three days): increased
- surface expression of CD25 in CD4+ and CD8+ T cells (anti-BCMA CAR+ T cells; BCMA-conjugated beads or anti-CD3 stimulation): further increased
- anti-CD19 CAR+ T cell cytolytic activity (K562-CD19 cells): decrease
- target cell killing by anti-BCMA CAR+ T cells by day 6 (RPMI-8226; 1 μM or 10 μM, E:T 0.3:1, vs absence of lenalidomide): greater degree of target cell killing
- treatment effect on CAR T cytolytic activity in co-culture with RPMI-8226 (RPMI-8226; three healthy donors and one IMiD-refractory patient): donor-dependent
- IC50 (OPM-2): 37.4 µM
- CAR-mediated cytolytic activity [3]: reduced

SMILES: O=C1CC[C@H](N2Cc3c(OCc4ccc(CN5CCOCC5)cc4)cccc3C2=O)C(=O)N1 [Compound 2, (S)-3-[4-(4-morpholin-4-ylmethyl-benzyloxy)-1-oxo-1,3-dihydro-isoindol-2-yl]-piperidine-2,6-dione]
- A549.CD19 spheroid growth ([4]; 0.001 μM, 0.01 μM, or 0.1 μM rescue, Day 9): improved CAR T cell cytolytic
- IFNγ in supernatant [4, 7]: statistically significant increase
- number of CAR T cells in co-cultures with tumor spheroids ([4]; day 5): increased
- cytolytic activity (tumor cell number over time) [5]: improved
- Granta-519 spheroid growth ([6]; 0.001 μM or 0.01 μM rescue, Day 9): improved CAR T cell cytolytic
- IFNγ in supernatant [6, 7]: statistically significant increase
- improvement in cytolytic function compared with Compound 1 ([6]; rescue treatment): greater following rescue treatment with Compound 2 than Compound 1
